Assay [1] deals with IFNAR1. Put plainly: Effect of lysosome / proteasome inhibitors on LRPAP1-induced IFNAR1 reduction, HEK-293T cells. The settings on record: 4 h, MA 20 mM; for effect on LRPAP1-induced IFNAR1 reduction: bafilomycin 1 μM, MG132 40 μM, leupeptin 50 μM.
A further assay relates to LRP1. Format: cell-based, human.
In assay [2] the test system is LRPAP1. Format: cell-based, human.
Assay [3] concerns LRPAP1. Format: cell-based, human. This is another data set of the same source.
Assay [4] has as its system IFNAR1. The assay is described as follows: IFNAR1 protein level, immunoblot, HEK-293T cells. The class given is cell-based, human.
Assay [5] concerns EV71. The assay is described as follows: EV71 entry and uncoating, HEK-293T cells. The class given is cell-based. The note with it: pre-treated on ice 1 h, EV71 MOI 50, within 1 h.
Assay [6] deals with IFNAR1. Put plainly: IFNAR1 protein level, immunoblot / immunofluorescence, RD cells. The note with it: RD cells, 200 nM, 1 h. Format: cell-based.
The subject of assay [7] is IFNAR1. Put plainly: LRPAP1 stimulated mouse brain ex vivo, membrane IFNAR1 immunoblot. More on the design: species or system C57BL/6 mouse. The note with it: 200 nM, ACSF, 1 h. The method, then: (§1) Tissues were washed twice with PBS and made into homogenate by 2 ml grinder. Membrane proteins were separated from cytosol protein extraction by using the protocol of membrane protein extraction kit (89842, Thermo).

The subject of assay [8] is IFNAR1. The assay is described as follows: IFNAR1 phosphorylation immunoblot, HEK-293T cells. Format: cell-based, human. The settings on record: extracellular rLRPAP1, 1 h.
Assay [9] deals with EV71. The assay is described as follows: EV71 infection of RD cells (viral RNA, titer, viral protein, CPE).
Assay [10] has as its system IFNAR1. The assay is described as follows: IFNAR1 endocytosis, EEA1 immunofluorescence, HEK-293T cells. The note with it: 200 nM, 1 h. The class given is cell-based, human. The procedure: Cellular expression of IFNAR1, viral protein VP1 and LRPAP1 at HEK-293T cells with and without the stimulation of EV71, the recombinant LRPAP1, and overexpression of LRPAP1 or 2A, were examined by the following protocol. Briefly, HEK-293T cells were washed twice with PBS and fixed with 4% paraformaldehyde for 20 min. Afterwards, cells were incubated with blocking buffer (10% (v/v) FBS, 1% (v/v) BSA, and 0.1% (v/v) Triton in PBS) for 2 h. Cells were then incubated with specific antibodies. […] After washing with PBST (PBS + 0.1% Tween-20) for 3 times, cells were labeled with Alexa Fluor 488 (green), or Alexa Fluor 594 (red) conjugated secondary antibody (dilution of 1:1000) (Life Technologies) for 1 h at 4 °C with shaking. After three times washing with PBST (PBS + 0.1% Tween-20), cells were followed by nuclei staining with DAPI (0.5 μg/ml) for 5 min at room temperature. Finally, cells were mounted with Prolong Gold Antifade Reagent on slides. Images were taken by Carl Zeiss LSM 880 confocal microscope using 63× oil objective and analyzed by ZEN software.

For assay [11], the system named is extracellular domain of IFNAR1. The assay is described as follows: Pull-down / co-immunoprecipitation of LRPAP1 with IFNAR1. The class given is binding. The note with it: Residues 1–436. The method, then: The interaction of LRPAP1, LRP1 and IFNAR1 was examined by immunoprecipitation using a protocol described as followed. HEK293T cells were cultured at around 90% confluence in a 100 mm tissue culture dish. Cells were washed with 10 ml of PBS and harvested in 0.5 ml of ice-cold lysis buffer ([…], pH 7.4, 1% SDS, 1% NP-40) and Protease Cocktail (Roche) and PhoSTOP (Roche). The total extract was pre-cleared with 10 μg normal rabbit IgG (Cell signaling, 2729 S) and 20 μl of protein A/G plus-agarose (Santa Cruz Biotechnology) at 4 °C on a rotor for 1 h. After gently removed protein A/G agarose beads by centrifugation at 500 rcf for 2 min, 0.2 mg of total extract was immunoprecipitated with the indicated antibodies overnight at 4 °C on a rotor. Approximately 20 μl of protein A/G plus-agarose (Santa Cruz Biotechnology) was added at 4 °C for one hour. Then, the beads were washed three times with washing buffer (lysis buffer contained 0.1% NP-40). The pellet was suspended with 40 μl PBS and 10 μl of 5× SDS-PAGE loading buffer and the samples were boiled for 10 min.
The interaction of LRPAP1, LRP1 and IFNAR1 was examined by immunoprecipitation using a protocol described as followed. HEK293T cells were cultured at around 90% confluence in a 100 mm tissue culture dish. […]

The subject of assay [12] is IFNAR1. The assay is described as follows: IFNAR1 and LRPAP1 in membrane and cytosol fractions, HEK-293T cells. Format: cell-based, human. The settings on record: 200 nM, 1 min to 10 min. The procedure: Then proteins were subjected to Western blotting. […] Hes1 (Abcam, ab71559).
as §1

The subject of assay [13] is EV71. The assay is described as follows: EV71 infection of newborn C57BL/6 mice. Format: in vivo. The method, then:
The C57BL/6 mice were purchased and were bred in the City University of Hong Kong. All animal experiment protocols were approved by the Ethics Committee of City University of Hong Kong with the license from Department of Health, Hong Kong (18-69 in DH/SHS/8/2/5 Pt.3). The studies were performed in accordance with the approved protocol. […] The neurological status and behavior of each mouse was measured every day. On day 7, mice were sacrificed, and the intestine and blood were collected for viral testing.

The next assay deals with HCoV-OC43. Put plainly: HCoV-OC43 infection of RD cells (viral RNA, TCID50, CPE). The note with it: pre-treated 1 h (or siRNA 24 h), MOI 1, 72 h.
The subject of assay [14] is IFNAR1. The assay is described as follows: Flow cytometry, cell surface IFNAR1 on 4T1 cells. Format: cell-based, murine. The settings on record: live 4T1 cells, 200 nM. The method, then:
The surface IFNAR1 was monitored by flow cytometry as previous described.[60] Briefly, murine breast cancer cells (4T1) were stained with APC-conjugated IFNAR1 (Biolegend #127314, 1:100) on ice for 30 min. […] Fluorescence-activated cells were then sorted and analyzed by Beckman Coulter CytoFLEX S Flow cytometer ([…]). The result was analyzed by FlowJo (version 10.5.3).
The surface IFNAR1 was monitored by flow cytometry as previous described^63. Briefly, murine breast cancer cells (4T1) were stained with APC-conjugated IFNAR1 (Biolegend #127314, 1:100) on ice for 30 min. […] Fluorescence-activated cells were then sorted and analyzed by Beckman Coulter CytoFLEX S Flow cytometer ([…]). The result was analyzed by FlowJo (version 10.5.3).

“Also recorded” adds a separate entry of the source.

In the case of `CO/C1=C\C(C)=C\[C@@H](C)[C@@H](O)[C@@H](C)C/C(C)=C/C=C/[C@H](OC)[C@@H]([C@@H](C)[C@@H](O)[C@H](C)[C@@]2(O)C[C@@H](O)[C@H](C)[C@@H](C(C)C)O2)OC1=O` [bafilomycin], the “effect on LRPAP1-induced IFNAR1 reduction” value with IFNAR1 [1] is “prohibited by lysosome inhibitors”.
Turning to `CN` [methylamine], the “effect on LRPAP1-induced IFNAR1 reduction” value in the assay on IFNAR1 [1] was “prohibited by lysosome inhibitors”. The “protection of IFNAR1 from degradation” value in the assay on IFNAR1 [1] (ubiquitin, LRPAP1, IFNAR1 expressed) is recorded as “IFNAR1 was protected from degradation”.
As to “SARS-CoV-2 3CL^pro: SARS-CoV-2 main protease, transfected pCMV-SARS-CoV-2-3CL”, the LRP1 protein level result in the assay with LRP1 is on record as “decreased protein level”. In addition, the “extracellular LRPAP1 level” value in the assay with LRPAP1 [2] was “extracellular LRPAP1 increase”. The LRPAP1 expression entry with LRPAP1 [3] was “increased LRPAP1 expression”. In addition, the IFNAR1 level entry in the assay on IFNAR1 [4] was “decreased IFNAR1 level; also recorded: expression of IFNAR1 decreased”.
For “rLRPAP1: recombinant LRPAP1 from pQTEV-LRPAP1 expressed in E. coli”, the “EV71 entry and uncoating rate” value in the assay on EV71 [5] was “promoted EV71 entry and uncoating rate within 1 h”. Further, the “IFNAR1 in the cell membrane (immunofluorescence)” value in the assay with IFNAR1 [6] is reported as “sharply decreased in the cell membrane”. Moreover, the “membrane IFNAR1 in mouse brain” value in the assay on IFNAR1 [7] is recorded as “significantly lower”. Moreover, the “IFNAR1 level on rLRPAP1 treatment” value is given as “marginal detectable level” in the assay with IFNAR1 [4] (50 nM, 1 h); “undetectable level” with IFNAR1 [4] (200 nM, 1 h); “rapidly decreased within 15 min in a rLRPAP1 dose-dependent manner” in the assay with IFNAR1 [4] (within 15 min, dose-dependent). Further, the “phosphorylated IFNAR1” value in the assay on IFNAR1 [8] is reported as “promoted in an extracellular rLRPAP1 dose-dependent manner”. Further, the EV71 infection entry in the assay on EV71 [9] (RD cells, 9 h, plasmid, recombinant protein or peptide pre-treatment, viral RNA / titer) is “significantly promoted EV71 infection”. Moreover, the “EV71 induced CPE” value in the assay with EV71 [9] (antibody added 3 h post infection (MOI 10, 6 h), rLRPAP1 200 nM pre-treatment 1 h) was “significantly promoted EV71 infection and EV71-induced CPE”. Further, the “IFNAR1 endocytosis (EEA1 level)” value in the assay on IFNAR1 [10] is “increased level of early endosome marker (EEA1)”. Further, the “direct binding to IFNAR1 extracellular domain (pull-down)” value in assay [11] is “directly bound with the extracellular domain of IFNAR1”. Moreover, the “IFNAR1 level in membrane / cytosol fractions” value with IFNAR1 [12] is given as “IFNAR1 consistently decreased with time”. In addition, the “rLRPAP1 enrichment in membrane fractions” value in the assay with IFNAR1 [12] was “gradually enriched in the membrane fractions”. The survival rate with EV71 [13] (co-injected EV71 and rLRPAP1, 7 days) turned out to be 75%. The “mice with severe neurological deficits” value with EV71 [13] (co-injected EV71 and rLRPAP1, after two injections (Day 3)) is 50%. Also, the “physical condition of mice” value in the assay with EV71 [13] (co-injected EV71 and rLRPAP1, i.p. twice per week) was “severe physical disharmony”. Also, in the assay with EV71 [13] (i.p. EV71 (2*10^8 PFU) + rLRPAP1 (200 nM) twice per week), the “EV71 infection and disease in mice” value is “potently enhanced EV71 infection and exacerbated the disease in newborn C57BL/6 mice”. Moreover, in the assay on HCoV-OC43, the “HCoV-OC43 intracellular RNA level” value is listed as “increased significantly”. The “HCoV-OC43 viral titer (TCID50)” value in the assay on HCoV-OC43 is “increased significantly”. The “cell surface IFNAR1” value with IFNAR1 [14] is given as “significantly reduced cell surface IFNAR1”.

The values above are taken from paper PMC10518340, “Secreted LRPAP1 binds and triggers IFNAR1 degradation to facilitate virus evasion from cellular innate immunity” (Signal Transduction and Targeted Therapy, 2023).
